Experiments:
wild-type eLtaS = target: T1, wild-type eLtaS (Staphylococcus aureus, UniProt Q2G093); assay: Isothermal titration calorimetry, wild-type eLtaS; type: binding, S. aureus; settings: ITC; for Kd: 25 °C, wild-type eLtaS titrated into 10 μM inhibitor
T1 construct: LtaS is a transmembrane protein with a large extracellular catalytic domain (denoted as eLtaS); His-tag; made in house; host or cells: E. coli (Rosetta; plasmid pProEX-eLtaS from strain ANG571)
Method: Each of the eLtaS proteins were purified from 6 L of E. coli cultures that were grown with aeration in LB medium supplemented with 200 μg/mL of carbenicillin and 34 μg/mL of chloramphenicol at 37 °C. When the cultures reached an OD600nm of about 0.6, protein expression was induced with 1 mM IPTG final concentration at 21 °C overnight. Later, the bacteria were harvested by centrifugation at 11,899g, and the bacterial pellets were resuspended with lysis buffer (50 mM Trizma-HCl, pH 7.5, 300 mM NaCl, 5% glycerol, 10 mM imidazole, 5 mM β-mercaptoethanol). The bacterial pellets were lyzed by three passages through a high-pressure emulsifier, and the lysates were centrifuged at 47,596g for 30 min at 4 °C. The resulting supernatants containing the His-tagged eLtaS proteins were filtered with a 0.22 μm filter before being loaded onto a 5 mL Ni-NTA column using an ÄKTApure protein purification system. The bound proteins were subsequently washed with lysis buffer, eluted using the elution buffer (50 mM Trizma-HCl, pH 7.5, 300 mM NaCl, 5% glycerol, and 300 mM imidazole), and dialyzed twice using the dialysis buffer [25 mM Trizma-HCl, pH 7.5, 100 mM NaCl, 10% glycerol, 1 mM ethylenediaminetetraacetic acid (EDTA)]. After dialysis, protein purity was confirmed to be >90% using SDS-PAGE. Proteins were then concentrated, snap-frozen in liquid N2, and stored at −80 °C prior to usage. All four eLtaS proteins were subjected to circular dichroism analysis, and their exact masses were determined using MS.
The thawed eLtaS proteins were dialyzed using D-Tube Dialyzer Mini (EMD Millipore) in 20 mM Trizma-HCl pH 7.5, 100 mM NaCl with Chelex 100 (Sigma-Aldrich) for 1.5 h twice on the same day prior to the ITC experiments. After dialysis, the eLtaS proteins were centrifuged at 20,000g at 10 °C for 10 min. The supernatants were transferred to new microcentrifuge tubes and diluted to 100 μM using the same buffer as above with an addition of 0.1% (v/v) DMSO. Meanwhile, the eLtaS inhibitors were diluted to 10 μM using the same buffer and maintaining 0.1% (v/v) DMSO. The eLtaS proteins were titrated into the main cell containing the inhibitors using a VP-ITC at 25 °C. The injection parameters were set as follows: a reference power of 15 μcal/s, an initial injection of 3 μL over a duration of 3.6 s, and then subsequent injections of 10 μL over a duration of 12 s. All injections were spaced with 240 s with a filter period of 2 s. Data were first analyzed in NITPIC[69] for baseline calculations and then fit for thermodynamic parameters using the OneSite model in Origin 7.0 software.

[1] = tested on: S aureus (strain Newman) biofilm; assay: Biofilm assay (crystal violet); type: cell-based; settings: 20 h, compound tested at 50, 25 and 12.5 μM
Method: Biofilm assays were carried out on 96-well flat-bottom plates using the protocol described by […] et al.[48] Briefly, S aureus (strain Newman) was grown statically in 96-well plates at 37 °C in Tryptic soy broth supplemented with 0.5% glucose. Each well was additionally supplemented with either DMSO or compound 9 to concentrations of 50, 25, and 12.5 μM. After 20 h, the bacterial cultures from the plates were removed, and each well was rinsed with 150 μL of sterilized distilled water thrice. The plates were then incubated for 1 h at 60 °C. After that, the biofilm in each well was stained with 0.05% (w/v) of crystal violet solution using the protocol described by O'Toole.[67] Finally, the stained biofilms were solubilized with 30% acetic acid and quantified at OD600nm using the BMG Labtech CLARIOstar microplate reader.

MRSA strain COL = assay: Potentiation (checkerboard synergy) assay; type: cell-based, S. aureus
Method: All the compounds tested in this study were dissolved in dimethyl sulfoxide (DMSO) at an initial stock concentration of 20 mM and stored at −20 °C. These compounds were tested for their antimicrobial activity using the microdilution broth method[66] following the protocol described by Richter et al.[30] Briefly, overnight cultures of S. aureus (strain Newman) grown at 37 °C in cation-adjusted Mueller Hinton II (MH2) broth were adjusted to an OD600nm of 0.6 before back-diluted with a factor of 1:2000 with the same broth. After that, 200 μL of the diluted bacterial culture were dispensed into each well of 96-well plates supplemented with the compounds to the desired concentrations. The plates were then sealed with a moisture membrane barrier and incubated statically for 20 h at 37 °C. After that, the OD600nm values of the cultures in each well were measured using a CLARIOstar microplate reader (BMG Labtech). The procedures for the potentiation assays were by large the same as described above with some variations. In such assays, MRSA strain COL was grown in the 96-well plates supplemented with different concentrations of compound 9 with methicillin, carbenicillin, or polymyxin B in a checkerboard format. Their synergistic effects were quantified by OD600nm measurements using a CLARIOstar microplate reader (BMG Labtech).

[2] = tested on: S. aureus (strain Newman); assay: Non-lethal S. aureus lung infection mouse model; type: in vivo, BALB/c female mice; settings: single intranasal dose of 300 μg 3 h postinfection; lungs collected 24 h postinfection; 5 × 10^7 CFU intranasal
Text: All in vivo experiments were done at the University of Liverpool under the UK Animals (Scientific Procedures) Act 1986 guidelines. The protocols were approved by the UK Home Office and by the University of Liverpool Animal Welfare and Ethics Committee. Six to eight week old BALB/c female mice (Charles River, UK) were used in the study after being left to acclimatize for a minimum of 7 days prior to experimentation. Mice were intranasally infected with 5 × 10^7 CFU of the S. aureus (strain Newman) in 50 μL of sterile phosphate-buffered saline (PBS). The bacterial dose was prepared by incubating 50 μL of an overnight culture in brain heart infusion (BHI) broth (Oxoid, Thermo Fisher Scientific, UK) into 5 mL of fresh BHI. Once the culture reached an OD600 = 2–3, the bacterial numbers were adjusted to the desired dose using sterile PBS. Three hours postinfection, mice were intranasally treated with either 50 μL of sterile PBS (control) or with 300 μg of compounds 1771 and compound 4 dissolved in 50 μL of sterile PBS. The final DMSO concentration was 5%, and the PBS control also contained 5% DMSO. Mice were culled 24 h postinfection; lungs were collected, homogenized, and serially diluted to determine CFU counts.[70] Significant differences were determined using the unpaired two-tailed Student t-test (p = 0.0013).

[3] = MRSA strain COL, compound 9 at subinhibitory 12.5 μM, checkerboard

T1 sequence (Q2G093 218-646): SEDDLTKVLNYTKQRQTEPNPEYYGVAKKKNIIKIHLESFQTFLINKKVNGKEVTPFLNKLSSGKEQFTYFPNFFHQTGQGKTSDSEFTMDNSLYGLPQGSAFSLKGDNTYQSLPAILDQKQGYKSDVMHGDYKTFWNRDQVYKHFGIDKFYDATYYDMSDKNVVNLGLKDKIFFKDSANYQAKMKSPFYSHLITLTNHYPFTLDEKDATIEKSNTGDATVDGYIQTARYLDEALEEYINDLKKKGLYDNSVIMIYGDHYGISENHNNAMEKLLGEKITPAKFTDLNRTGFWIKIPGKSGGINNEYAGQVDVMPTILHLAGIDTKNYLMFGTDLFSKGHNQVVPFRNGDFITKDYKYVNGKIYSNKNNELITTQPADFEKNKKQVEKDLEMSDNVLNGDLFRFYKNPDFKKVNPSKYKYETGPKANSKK

| Structure (SMILES) | Kd (wild-type eLtaS) [nM] | reduction in biofilm attachment [1] [%] | reduction of the minimum inhibitory concentration of carbenicillin (MRSA strain COL; [3]) [fold] | reduction of the minimum inhibitory concentration of methicillin (MRSA strain COL; [3]) [fold] | increase in sensitivity toward polymyxin B (MRSA strain COL; MRSA strain treated with compound 9, checkerboard) [fold] | reduction in recoverable colonies from the lungs [2] [log] | binding enthalpy (wild-type eLtaS; wild-type eLtaS, compared with 1771) |
| --- | --- | --- | --- | --- | --- | --- | --- |
| S=C(Nc1ccc(Cl)cc1)Nc1ccc(Sc2nc3ccccc3[nH]2)cc1 [Compound 9] | 283 | 50 | 32 | 16 | 4 |  |  |
| O=C(COC(=O)c1cn(-c2ccccc2)nc1-c1cccs1)Nc1nnc(-c2ccccc2)o1 [Compound 4] | 365 ± 6.8 |  |  |  |  | 2 | more exothermic than that of 1771 |

— article PMC9131456, “Structure-Based Discovery of Lipoteichoic Acid Synthase Inhibitors” (Journal of Chemical Information and Modeling, 2022)
